Data set [1] deals with plasma cysteine, plasma glutathione and red blood cell glutathione. As to conditions: in vivo; cited from earlier work.
The next data set relates to myocardial glutathione. As to conditions: subsequent to experimental ischemia and reperfusion; cited from earlier work.
In data set [2] the test system is left median and ulnar nerves. The data set can be described thus: Nerve conduction studies on Subject 1 in the clinical trial of PABA with antioxidant and vitamin co-agents. The format is in vivo, human. The note with it: for Latency: distal latency; for Latency / Amplitude / Conduction velocity: May 6, 1992 study; for Change in amplitude / Change in conduction velocity / Change in distal latency: May 6, 1992 vs Jun. 20, 1988. The method, then: Subject 1 is an individual and having hereditary motor and sensory neuropathy. The subject's family has the X-linked subvariety of the disease. All of the composition ingredients of this example were administered via the oral route. On Sep. 1, 1990 Subject 1 began taking three 100 mg tablets of p-aminobenzoic acid per day. This daily dosage consisted of single 100 mg tablets (Schiff Products, Moonachie, N.J.) taken one at a time approximately every eight hours. Also initiated at this time and taken three times per day: DL-methionine, 500 mg and vitamin E (as mix tocopherols in oil-based capsules), 200 I.U. Their weight at the time was approximately 165 lbs. The daily dosage times were approximately 8:00 AM, 4:00 PM and 11:30 PM. This original low dosage of PABA was selected in part as a check to ensure no adverse immunologic reaction. Symptoms of allergic reaction such as bronchial constriction or skin rash were not observed. […] On Oct. 1, 1990 Subject 1 began taking a total of 600 mg PABA per day by doubling the original dosage noted above; 200 mg taken three times per day. Also taken with PABA: DL-methionine, 500 mg and vitamin E, 200 I.U. On Jan. 1, 1991 Subject 1 began taking three 550 mg capsules of PABA (Solgar Co., Lynbrook, N.Y.) per day, one approximately every eight hours. DL-Methionine use was doubled to 1,000 mg every eight hours. Likewise, vitamin E deosage was doubled to 400 I.U. every eight hours. In addition, the following dietary supplements were initiated and taken once per day (4:00 PM): On Feb. 24, 1991 Subject 1 began taking six 550 mg capsules of PABA per day, two every eight hours plus the dietary supplement combination initiated January 1st. DL-Methionine and vitamin E dosage were continued as initiated January 1st; 3,000 mg and 1,200 I.U. total daily, respectively. Dosage of additional dietary supplements was also continued as initiated January 1st, with the addition of 100 mg vitamin B1 per day. Also, selenium daily dosage was reduced to 12 ug per day. As of May 1, 1991 consumption of pantothenic acid and vitamin B1 were tripled to 250 mg 3× daily and 100 mg 3× daily, respectively, taken with PABA. Also initiated now, vitamin B6, 100 mg taken 3× daily with PABA. As of Jul. 1, 1991 the methionine product was switched to “L-Methionine 500 mg Caps with Vitamin B6” (Nature's Plus, Farmingdale, N.Y.). Each capsule has the free form of the L-amino acid and 50 mg vitamin B6. This dose of vitamin B6 is in addition to the 300 mg/day noted in the preceding paragraph. As of Jul. 26, 1991 the vitamin E product was switched to “Natural Dry All E, 400 I.U.” (Schiff Products, Moonachie, N.J.). One of these dry powder capsules is taken 3× daily with PABA, as before. As of Aug. 7, 1991 daily doses of PABA, methionine and vitamin E were increased by 50%. Thus starting at this time, three 550 mg PABA capsules, three 500 mg methionine capsules, one 400 I.U. dry vitamin E and a 200 I.U. dry vitamin E capsule were taken at a time, three times per day. Daily totals of these agents were now: PABA, 4.95 gm; methionine, 4.5 gm; and vitamin E, 1,800 I.U. Other agents were taken as before. As of Nov. 22, 1991 the daily dose of PABA was increased. Thus starting at this time, four 550 mg PABA capsules were taken at a time, three times per day. Daily total of PABA was now 6.6 gm. Other agents were taken as before. On Jun. 20, 1988 Subject 1 participated in a nerve conduction research study at the National Institutes of Health. Nerve conduction data was recorded from the left median and ulnar nerves, which included conduction velocity, amplitude and distal latency for each nerve. On May 6, 1992 Subject 1 was tested again at the office of a neurologist in Bryn Mawr, Pa. This experimental drug trial involved a step-by-step increase in dosages over an extended period. […]

A short description of data set [3]: Check for adverse immunologic or clinical reaction to low-dose oral PABA in Subject 1. The format is in vivo, human. As to conditions: oral PABA 100 mg three times per day with DL-methionine 500 mg and vitamin E 200 I.U. Here is the method:
Subject 1 is an individual and having hereditary motor and sensory neuropathy. The subject's family has the X-linked subvariety of the disease. All of the composition ingredients of this example were administered via the oral route.
On Sep. 1, 1990 Subject 1 began taking three 100 mg tablets of p-aminobenzoic acid per day. This daily dosage consisted of single 100 mg tablets (Schiff Products, Moonachie, N.J.) taken one at a time approximately every eight hours. Also initiated at this time and taken three times per day: DL-methionine, 500 mg and vitamin E (as mix tocopherols in oil-based capsules), 200 I.U. Their weight at the time was approximately 165 lbs. The daily dosage times were approximately 8:00 AM, 4:00 PM and 11:30 PM. This original low dosage of PABA was selected in part as a check to ensure no adverse immunologic reaction. Symptoms of allergic reaction such as bronchial constriction or skin rash were not observed.

On to `CC(=O)N[C@@H](CS)C(=O)O` [N-acetyl-cysteine], for which the “Levels of plasma cysteine, plasma glutathione and red blood cell glutathione” value in data set [1] is on record as “increase”. In addition, the “Increase in myocardial glutathione” value in the data set with myocardial glutathione is 100 fold.

In the case of `Nc1ccc(C(=O)O)cc1` [PABA, 4-Aminobenzoic acid], the Latency turned out to be 13.1 ms in data set [2] (left median nerve, after PABA up to 6.6 gm/day with co-agents, pre-treatment Jun. 20, 1988 value 12.4) and 13.1 ms in data set [2] (left ulnar nerve, after PABA up to 6.6 gm/day with co-agents, pre-treatment Jun. 20, 1988 value 13.8). Further, the Amplitude in data set [2] (left median nerve, after PABA up to 6.6 gm/day with co-agents, pre-treatment Jun. 20, 1988 value 0.4) was determined as 0.4 mV; in data set [2] (left ulnar nerve, after PABA up to 6.6 gm/day with co-agents, pre-treatment Jun. 20, 1988 value 1.3), 2.4 mV. The Conduction velocity in data set [2] (left median nerve, after oral PABA raised stepwise from 300 mg/day to 6.6 gm/day (Sep 1990-May 1992) with methionine, vitamin E and vitamin co-agents, Subject 1, X-linked HMSN, pre-treatment Jun. 20, 1988 value 28) is 28.2 meters/sec; in data set [2] (left ulnar nerve, after PABA up to 6.6 gm/day with co-agents, pre-treatment Jun. 20, 1988 value 29) it was 31.8 meters/sec. Also, the Change in amplitude result in data set [2] (left median nerve) is on record as “remained unchanged”; in data set [2] (left ulnar nerve), “improved by eighty-five percent”. Also, the “Change in conduction velocity” value in data set [2] (left median nerve) is listed as “remained unchanged”; in data set [2] (left ulnar nerve), “improved by ten percent”. Besides, the “Change in distal latency” value in data set [2] (left median nerve) is reported as “increased (that is, worsened) by six percent”; in data set [2] (left ulnar nerve), “improved by five percent”. Besides, the “Clinical reaction to PABA” value in data set [3] is listed as “no clinical reaction”. In addition, in data set [3], the “Symptoms of allergic reaction such as bronchial constriction or skin rash” value is on record as “not observed”.

These data come from patent publication US6746678B1, “Method of treating neurological diseases and etiologically related symptomology using carbonyl trapping agents in combination with medicaments” (priority 1991, dated 2004).
